Patent US20230210802A1, “COMPOSITION FOR RELIEVING HANGOVER AND IMPROVING LIVER FUNCTION” (Zefit Inc., priority 2022, published 2023)

What follows are compounds tested on zebrafish model showing an anesthetic effect by acute alcohol treatment (assay: Movement distance of zebrafish model with acute alcohol treatment (total distance, video tracking 20 minutes)). Details: zebrafish larvae 7 dpf, ETOH 2%, omega-3 1.4 mg/L, B2 0.2 mg/L, B3 0.5 mg/L, values converted from FIG. 4.
Assay type: in vivo
Description: First, each of omega-3 fatty acid (1.4 mg/L), riboflavin (vitamin B2) (0.2 mg/L), and nicotinamide (vitamin B3) (0.5 mg/L) was dissolved in E3 media to prepare a pre-treatment solution. A mixture of omega-3 fatty acid (1.4 mg/L), riboflavin (vitamin B2) (0.2 mg/L), and nicotinamide (vitamin B3) (0.5 mg/L) was dissolved in E3 media to prepare a pre-treatment solution. Each of omega-3 fatty acid (1.4 mg/L), riboflavin (vitamin B2) (0.2 mg/L), and nicotinamide (vitamin B3) (0.5 mg/L) was dissolved in ETOH 2% (in E3 media) to prepare a post-treatment solution. A mixture of omega-3 fatty acid (1.4 mg/L), riboflavin (vitamin B2) (0.2 mg/L), and nicotinamide (vitamin B3) (0.5 mg/L) was dissolved in ETOH 2% (in E3 media) to prepare a post-treatment solution. Zebrafish larvae at 7 days post-fertilization (dpf) were exposed in water to 200 μl/well of the pre-treatment solution for each group (n=20/group) in a 96-well plate for 1 hour. 1 zebrafish larva was in each well. After 1 hour of pre-treatment, the pre-treatment solution was replaced with 200 μl/well of the post-treatment solution for each group, followed by exposure in water. Subsequently, the behaviors of the zebrafish larvae were recorded for 20 minutes. After recording, the cumulative distances for each section (0-5 min, 5-10 min, 10-15 min, and 15-20 min) of the normal control and the experimental groups were analyzed, and the results thereof are shown in FIGS. 1 and 2. […]
Particularly, the behaviors of zebrafish larvae were recorded for 20 minutes, and after recording, the total distance for an experiment time of 20 minutes of each of the normal control and the experimental groups was analyzed, and the results thereof are shown in FIG. 4. […]

Row | Compound | Average value of total movement distance
1 | NC(=O)c1cccnc1 [ETOH + B3, nicotinamide] | 77.39 mm
2 | omega-3 fatty acid [ETOH + Omega-3 fatty acid] | 399.3 mm
3 | riboflavin [ETOH + B2] | 223.97 mm
